Results taken from ChEMBL document CHEMBL1127179, “Synthesis and 5-HT3 receptor agonist activity of arylureas derived from histamine” (Bioorg Med Chem Lett, 1993).

Columns and labels:
[1] = molecular target: Serotonin 3 (5-HT3) receptor; assay: Binding affinity for the 5-hydroxytryptamine 3 receptor was evaluated in vitro by examining its ability to displace [3H]-BRL 43694.; format: protein-complex assay
[2] = molecular target: Serotonin 3 (5-HT3) receptor (Homo sapiens) (UniProt P46098+A5X5Y0+O95264+Q70Z44+Q8WXA8); assay: Tested for 5-hydroxytryptamine 3 receptor antagonist activity by inhibiting the 5-HT evoked Bezold-Jarisch reflex; format: functional

Row | Compound | Log Ki [1] | -Log ED50 [2]
1 | CCOc1ccccc1NC(=O)NCCc1c[nH]cn1 | -7.35 | 7.2
2 | NCCc1c[nH]c2ccc(O)cc12 | – | 7.4
3 | COc1ccc(Cl)cc1NC(=O)NCCc1c[nH]cn1 | -8.86 | 6.8
4 | Cn1nc(C(=O)NCCc2c[nH]cn2)c2ccccc21 | -7.84 | 6.9
5 | COc1ccccc1NC(=O)NCCc1c[nH]cn1 | -7.55 | 7
6 | COc1ccc(F)cc1NC(=O)NCCc1c[nH]cn1 | -7.69 | 7.4
7 | COc1cc(F)ccc1NC(=O)NCCc1c[nH]cn1 | -7.39 | 7
